Assay [1] addresses T1, Beta-lactamase (Escherichia coli K-12, UniProt P00811). The assay is described as follows: Inhibition of 1 nM AmpC beta lactamase.
Assay [2] has as its target T1, Beta-lactamase. The assay is described as follows: Inhibition of 10 nM AmpC beta lactamase.
Assay [3] deals with T1, Beta-lactamase. Briefly: Inhibition of 30 nM AmpC beta lactamase.
For assay [4], the target named is T1, Beta-lactamase. Briefly: Inhibition of 20 nM AmpC beta lactamase.

T1 sequence (P00811 whole entry): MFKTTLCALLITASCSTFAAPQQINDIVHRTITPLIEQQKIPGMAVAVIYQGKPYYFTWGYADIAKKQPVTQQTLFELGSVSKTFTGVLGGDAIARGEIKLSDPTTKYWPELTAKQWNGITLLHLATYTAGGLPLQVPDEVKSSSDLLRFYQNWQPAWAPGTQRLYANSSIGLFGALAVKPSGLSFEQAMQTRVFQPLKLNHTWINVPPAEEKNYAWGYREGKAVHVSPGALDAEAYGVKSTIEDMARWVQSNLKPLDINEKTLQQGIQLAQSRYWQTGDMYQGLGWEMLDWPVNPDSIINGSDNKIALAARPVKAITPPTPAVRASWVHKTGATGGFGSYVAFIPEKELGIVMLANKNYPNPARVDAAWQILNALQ

The IC50 is the point on the concentration scale where inhibition reaches its midpoint. A higher IC50 goes with weaker potency. Consider `CC(=O)c1c(O)c(C)c(O)c(Cc2c(O)c3c(c(C(=O)/C=C/c4ccccc4)c2O)OC(C)(C)C=C3)c1O` [ROTTLERIN], for which the IC50 against Beta-lactamase [1] was determined as 1.8 µM; on Beta-lactamase [2] it was 21 µM; against Beta-lactamase [3] it was 76 µM.

Regarding `O=C1OC(c2ccc(O)cc2)(c2ccc(O)cc2)c2c(I)c(I)c(I)c(I)c21` [TETRAIODOPHENOLPHTHALEINE], the IC50 against Beta-lactamase [1] amounted to 3.8 µM; at Beta-lactamase [2], 20 µM; on Beta-lactamase [4], 19 µM.
